The numbers were not newly measured in patent publication US7485658B2, “N-substituted pyrazolyl-amidyl-benzimidazolyl c-Kit inhibitors” (OSI Pharmaceuticals, Inc., priority 2003, dated 2009), which cites them from elsewhere.

Where a name gives a salt, the structure may show the parent alone.

For series [1], the system named is MO7e human leukemia cells.
The test system of series [2] is MO7e human leukemia cells. The source holds these as a separate data set.

`Cc1ccc(NC(=O)c2ccc(CN3CCN(C)CC3)cc2)cc1Nc1nccc(-c2cccnc2)n1` [Gleevec, imatinib mesylate]: in series [1] (Kit ligand stimulated), the “Kit ligand-stimulated growth of MO7e cells” value is reported as “inhibited”. In addition, the “apoptosis in MO7e cells” value in series [1] (Kit ligand stimulated conditions) is “induces apoptosis”. Besides, the “GM-CSF stimulated growth of MO7e cells” value in series [2] is on record as “not affected”.
